These are literature values, as cited in patent publication US20040158054A1, “Di-ribonucleotides as specific viral RNA-polymerase inhibitors for the treatment or prevention of viral infections” (priority 2003, published 2004).

In series [1] the test system is 6-mercaptopurine-resistant cancer cell lines.

Consider `O=P(O)(OC[C@H]1O[C@@H](n2cnc3c(=S)[nH]cnc32)[C@H](O)[C@@H]1O)OC[C@H]1O[C@@H](n2cnc3c(=S)nc[nH]c32)[C@H](O)[C@@H]1O` [bis(thioinosine)-5′,5′-phosphate], for which, in series [1], the “inhibition of 6-mercaptopurine-resistant cancer cell lines” value is on record as “inhibit”. For the same compound, the “fold more potent against neoplastic cells than 6-MP” value in the series with neoplastic cells (relative to 6-MP) is given as 240 fold. The “fold more potent against neoplastic cells than 6-MP riboside” value with neoplastic cells (relative to 6-MP riboside) is 25 fold.
